Assay results: the NIST ThermoML archive (doi:10.1021/acs.jced.8b00011)
Several values for one entry are separate records, joined by “and”; a condition that tells them apart may be missing. Equal entries are not always repeated. ± gives the expanded uncertainty stated by the source.

Settings: Liquid; for mass density: Vibrating tube method; for electrical conductivity: electrochemical impedance spectroscopy

## CCCCC[P+](CC)(CC)CC.O=S(=O)([N-]S(=O)(=O)C(F)(F)F)C(F)(F)F
273.15 K, 100 kPa, Concentric cylinders viscometry
  viscosity: 391.1 ± 13 mPa·s
273.15 K, 100 kPa, Falling or rolling sphere viscometry
  viscosity: 396.2 ± 28 mPa·s and 396 ± 28 mPa·s
273.15 K, 100 kPa
  mass density: 1323.74 ± 1.9 kg/m3 and 1324 ± 1.9 kg/m3 and 1323.6 ± 1.3 kg/m3
273.15 K, 101.33 kPa
  electrical conductivity: 0.0399 S/m and 0.04 S/m
278.15 K, 100 kPa, Concentric cylinders viscometry
  viscosity: 275.6 ± 8.5 mPa·s
278.15 K, 100 kPa, Falling or rolling sphere viscometry
  viscosity: 278.3 ± 16 mPa·s and 278.2 ± 16 mPa·s
278.15 K, 100 kPa
  mass density: 1319.92 ± 1.9 kg/m3 and 1319.6 ± 1.9 kg/m3 and 1319.31 ± 1.3 kg/m3
278.15 K, 101.33 kPa
  electrical conductivity: 0.0556 S/m and 0.0557 S/m
283.14 K, 149300 kPa, Frequency=0 MHz
  electrical conductivity: 0.0123 ± 0.00025 S/m
283.14 K, 174300 kPa, Frequency=0 MHz
  electrical conductivity: 0.00927 ± 0.00019 S/m
283.15 K, 100 kPa, Concentric cylinders viscometry
  viscosity: 199.6 ± 5.6 mPa·s
283.15 K, 100 kPa, Falling or rolling sphere viscometry
  viscosity: 201.3 ± 9.7 mPa·s and 200.4 ± 9.7 mPa·s
283.15 K, 100 kPa, Frequency=0 MHz
  electrical conductivity: 0.076 ± 0.0015 S/m
283.15 K, 100 kPa
  mass density: 1315.3 ± 1.9 kg/m3 [middle of 4 runs]
283.15 K, 101.33 kPa
  electrical conductivity: 0.0756 S/m and 0.076 S/m and 0.0755 S/m
283.15 K, 1200 kPa, Frequency=0 MHz
  electrical conductivity: 0.0749 ± 0.0015 S/m
283.15 K, 3100 kPa, Frequency=0 MHz
  electrical conductivity: 0.0728 ± 0.0015 S/m
283.15 K, 5100 kPa, Frequency=0 MHz
  electrical conductivity: 0.0709 ± 0.0014 S/m
283.15 K, 10600 kPa, Falling or rolling sphere viscometry
  viscosity: 228.6 ± 12 mPa·s
283.15 K, 15400 kPa, Frequency=0 MHz
  electrical conductivity: 0.0618 ± 0.0012 S/m
283.15 K, 20500 kPa, Frequency=0 MHz
  electrical conductivity: 0.0578 ± 0.0012 S/m
283.15 K, 20600 kPa, Falling or rolling sphere viscometry
  viscosity: 263 ± 15 mPa·s
283.15 K, 25600 kPa, Frequency=0 MHz
  electrical conductivity: 0.054 ± 0.0011 S/m
283.15 K, 30300 kPa, Falling or rolling sphere viscometry
  viscosity: 302.4 ± 19 mPa·s
283.15 K, 30600 kPa, Frequency=0 MHz
  electrical conductivity: 0.0507 ± 0.001 S/m
283.15 K, 40800 kPa, Falling or rolling sphere viscometry
  viscosity: 352.7 ± 24 mPa·s
283.15 K, 42000 kPa, Frequency=0 MHz
  electrical conductivity: 0.0437 ± 0.00088 S/m
283.15 K, 50300 kPa, Frequency=0 MHz
  electrical conductivity: 0.0394 ± 0.00079 S/m
283.15 K, 50700 kPa, Falling or rolling sphere viscometry
  viscosity: 398.9 ± 28 mPa·s
283.15 K, 60900 kPa, Falling or rolling sphere viscometry
  viscosity: 459.1 ± 35 mPa·s
283.15 K, 71400 kPa, Falling or rolling sphere viscometry
  viscosity: 527.1 ± 42 mPa·s
283.15 K, 74900 kPa, Frequency=0 MHz
  electrical conductivity: 0.0294 ± 0.00059 S/m
283.15 K, 80400 kPa, Falling or rolling sphere viscometry
  viscosity: 599.8 ± 51 mPa·s
283.15 K, 88200 kPa, Falling or rolling sphere viscometry
  viscosity: 667.7 ± 59 mPa·s
283.15 K, 94700 kPa, Falling or rolling sphere viscometry
  viscosity: 740.8 ± 68 mPa·s
283.15 K, 99800 kPa, Frequency=0 MHz
  electrical conductivity: 0.0219 ± 0.00044 S/m
283.15 K, 126100 kPa, Frequency=0 MHz
  electrical conductivity: 0.016 ± 0.00032 S/m
283.16 K, 2100 kPa, Frequency=0 MHz
  electrical conductivity: 0.0741 ± 0.0015 S/m
283.16 K, 10300 kPa, Frequency=0 MHz
  electrical conductivity: 0.0661 ± 0.0013 S/m
283.16 K, 199900 kPa, Frequency=0 MHz
  electrical conductivity: 0.00703 ± 0.00014 S/m
288.15 K, 100 kPa, Concentric cylinders viscometry
  viscosity: 148 ± 3.9 mPa·s
288.15 K, 100 kPa
  mass density: 1311.35 ± 1.9 kg/m3 and 1311 ± 1.9 kg/m3 and 1310.72 ± 1.3 kg/m3
288.16 K, 101.33 kPa
  electrical conductivity: 0.1 S/m
293.15 K, 100 kPa, Concentric cylinders viscometry
  viscosity: 111.8 ± 2.7 mPa·s and 112.2 ± 2.8 mPa·s and 112 ± 2.7 mPa·s
293.15 K, 100 kPa, Falling or rolling sphere viscometry
  viscosity: 112.7 ± 3.8 mPa·s
293.15 K, 100 kPa
  mass density: 1306.8 ± 1.8 kg/m3 [middle of 4 runs]
293.15 K, 101.33 kPa
  electrical conductivity: 0.13 S/m
298.14 K, 176500 kPa, Frequency=0 MHz
  electrical conductivity: 0.0255 ± 0.00051 S/m
298.15 K, 100 kPa, Concentric cylinders viscometry
  viscosity: 86.33 ± 2 mPa·s
298.15 K, 100 kPa, Falling or rolling sphere viscometry
  viscosity: 87.05 ± 3.3 mPa·s and 87.04 ± 3.3 mPa·s and 87.45 ± 3.4 mPa·s
298.15 K, 100 kPa, Frequency=0 MHz
  electrical conductivity: 0.165 ± 0.0033 S/m
298.15 K, 100 kPa
  mass density: 1302.45 ± 1.8 kg/m3 [middle of 6 runs]
298.15 K, 101.33 kPa
  electrical conductivity: 0.166 S/m and 0.165 S/m
298.15 K, 600 kPa, Falling or rolling sphere viscometry
  viscosity: 86.57 ± 2.4 mPa·s
298.15 K, 1000 kPa
  mass density: 1302.82 ± 1.3 kg/m3
298.15 K, 3400 kPa, Frequency=0 MHz
  electrical conductivity: 0.159 ± 0.0032 S/m
298.15 K, 5000 kPa
  mass density: 1305.75 ± 1.3 kg/m3
298.15 K, 5100 kPa, Frequency=0 MHz
  electrical conductivity: 0.155 ± 0.0031 S/m
298.15 K, 9800 kPa, Frequency=0 MHz
  electrical conductivity: 0.146 ± 0.0029 S/m
298.15 K, 10000 kPa
  mass density: 1309.28 ± 1.3 kg/m3
298.15 K, 10500 kPa, Falling or rolling sphere viscometry
  viscosity: 99.67 ± 3.1 mPa·s
298.15 K, 15000 kPa, Frequency=0 MHz
  electrical conductivity: 0.138 ± 0.0028 S/m
298.15 K, 15000 kPa
  mass density: 1312.76 ± 1.4 kg/m3
298.15 K, 20000 kPa
  mass density: 1316.13 ± 1.4 kg/m3
298.15 K, 20500 kPa, Falling or rolling sphere viscometry
  viscosity: 114.4 ± 3.9 mPa·s
298.15 K, 20900 kPa, Frequency=0 MHz
  electrical conductivity: 0.129 ± 0.0026 S/m
298.15 K, 25000 kPa
  mass density: 1319.42 ± 1.4 kg/m3
298.15 K, 25800 kPa, Frequency=0 MHz
  electrical conductivity: 0.122 ± 0.0024 S/m
298.15 K, 30000 kPa
  mass density: 1322.62 ± 1.4 kg/m3
298.15 K, 30600 kPa, Falling or rolling sphere viscometry
  viscosity: 130.4 ± 4.9 mPa·s
298.15 K, 31200 kPa, Frequency=0 MHz
  electrical conductivity: 0.114 ± 0.0023 S/m
298.15 K, 35000 kPa
  mass density: 1325.82 ± 1.5 kg/m3
298.15 K, 40000 kPa
  mass density: 1328.9 ± 1.5 kg/m3
298.15 K, 40500 kPa, Falling or rolling sphere viscometry
  viscosity: 148 ± 6 mPa·s
298.15 K, 41000 kPa, Frequency=0 MHz
  electrical conductivity: 0.102 ± 0.002 S/m
298.15 K, 45000 kPa
  mass density: 1331.96 ± 1.6 kg/m3
298.15 K, 50010 kPa
  mass density: 1334.83 ± 1.6 kg/m3
298.15 K, 50500 kPa, Falling or rolling sphere viscometry
  viscosity: 167.4 ± 7.3 mPa·s
298.15 K, 51100 kPa, Frequency=0 MHz
  electrical conductivity: 0.0914 ± 0.0018 S/m
298.15 K, 56700 kPa, Frequency=0 MHz
  electrical conductivity: 0.0859 ± 0.0017 S/m
